From patent US10294202B2, “Pyrrolidinones as herbicides” (FMC Corporation, priority 2013, dated 2019)

Assays:
sprangletop, Brdd. = assay: Test F flood (paddy) test; format: in vivo, Leptochloa fascicularis; settings: 21 d, scale 0-100
Source text: (§1) Three plastic pots (ca. 16-cm diameter) per rate were partially filled with sterilized Tama silt loam soil comprising a 35:50:15 ratio of sand, silt and clay and 2.6% organic matter. Separate plantings for each of the three pots were as follows. Seeds from the U.S. of monochoria (Monochoria vaginalis), sedge, umbrella (small-flower umbrella sedge, Cyperus difformis), bulrush, […] bulrush, Scirpus juncoides), and […] (purple […] coccinea), were planted into one 16-cm pot for each rate. Seeds from the U.S. of flatsedge, rice (rice flatsedge, Cyperus iria), sprangletop, Brdd. (bearded sprangletop, Leptochloa fascicularis), one stand of 9 or 10 water seeded rice seedlings (Rice, W.S. Jap, Oryza sativa cv. 'Japonica-[…]' or Rice, W.S. Ind, 'Indica'), and two stands of 3 or 4 seedlings of rice, transplanted (transplanted rice, Oryza sativa cv. 'Japonica-[…]') were planted into one 16-cm pot for each rate. Seeds from the U.S. of barnyardgrass (Echinochloa crus-galli), […] (common […], Alisma plantago-aquatica), and watergrass, late (late watergrass, Echinochloa oryzicola) were planted into one 16-cm pot for each rate. Plantings were sequential so that crop and weed species were at the 2.0 to 2.5-leaf stage at time of treatment. Potted plants were grown in a greenhouse with day/night temperature settings of 30/27° C., and supplemental balanced lighting was provided to maintain a 16-h photoperiod. Test pots were maintained in the greenhouse until test completion. At time of treatment, test pots were flooded to 3 cm above the soil surface, treated by application of test compounds directly to the paddy water, and then maintained at that water depth for the duration of the test. Effects of treatments on rice and weeds were visually evaluated by comparison to untreated controls after 21 d. Plant response ratings, summarized in Table F, are based on a scale of 0 to 100 where 0 is no effect and 100 is complete control. A dash (-) response means no test result.

redstem = assay: Test F flood (paddy) test; format: in vivo, Ammannia coccinea; settings: 21 d, scale 0-100
Source text: as §1

flatsedge, rice = assay: Test F flood (paddy) test; format: in vivo, Cyperus iria; settings: 21 d, scale 0-100
Source text: as §1

barnyardgrass = assay: Test F flood (paddy) test; format: in vivo, Echinochloa crus-galli; settings: 21 d, scale 0-100
Source text: as §1

ryegrass, Italian = assay: Test D pre-/postemergence herbicide test; format: in vivo, Lolium multiflorum; settings: for Plant response rating: Postemergence, Ryegrass, Italian, scale 0 to 100; for Plant response rating, Ryegrass, Italian: Preemergence, scale 0 to 100 (0 no effect, 100 complete control)
Source text: (§2) Seeds of plant species selected from bluegrass (annual bluegrass, Poa annua), blackgrass (Alopecurus myosuroides), canarygrass (littleseed canarygrass, Phalaris minor), chickweed (common chickweed, Stellaria media), galium (catchweed bedstraw, Galium aparine), bromegrass, downy (downy bromegrass, Bromus tectorum), field poppy (Papaver rhoeas), field violet (Viola arvensis), foxtail, green (green foxtail, Setaria viridis), deadnettle (henbit deadnettle, Lamium amplexicaule), ryegrass, Italian (Italian ryegrass, Lolium multiflorum), kochia (Kochia scoparia), lambsquarters (Chenopodium album), oilseed rape (Brassica napus), pigweed (Amaranthus retroflexus), chamomile (scentless chamomile, Matricaria inodora), Russian thistle (Salsola kali), speedwell (bird's-eye speedwell, Veronica persica), barley, spring (spring barley, Hordeum vulgare), wheat, spring (spring wheat, Triticum aestivum), buckwheat, wild (wild buckwheat, Polygonum convolvulus), mustard, wild (wild mustard, Sinapis arvensis), oat, wild (wild oat, Avena fatua), radish, wild (wild radish, Raphanus raphanistrum), […]), barley, winter (winter barley, Hordeum vulgare), and wheat, winter (winter wheat, Triticum aestivum) were planted into a silt loam soil and treated preemergence with test chemicals formulated in a non-phytotoxic solvent mixture which included a surfactant. At the same time, these species were planted in pots containing Redi-Earth® planting medium (Scotts Company, 14111 Scottslawn Road, Marysville, Ohio 43041) comprising spaghnum peat moss, vermiculite, wetting agent and starter nutrients and treated with postemergence applications of the test chemicals formulated in the same manner. Plants ranged in height from 2 to 18 cm (1- to 4-leaf stage). Treated plants and controls were maintained in a controlled growth environment for 7 to 21 days after which time all species were compared to controls and visually evaluated. Plant response ratings, summarized in Table D, are based on a scale of 0 to 100 where 0 is no effect and 100 is complete control. A dash (-) response means no test result.

pigweed = assay: Test D pre-/postemergence herbicide test; format: in vivo, Amaranthus retroflexus; settings: for Plant response rating: Postemergence, Pigweed, scale 0 to 100; for Plant response rating, Pigweed: Preemergence, scale 0 to 100 (0 no effect, 100 complete control)
Source text: as §2

lambsquarters = assay: Test E preemergence herbicide test; format: in vivo, Chenopodium album; set-up: key: 0 = no effect, 100 = complete control
Source text: (§3) Seeds of plant species selected from corn (Zea mays), soybean (Glycine max), velvetleaf (Abutilon theophrasti), lambsquarters (Chenopodium album), wild poinsettia (Euphorbia heterophylla), pigweed, palmer (palmer pigweed, Amaranthus palmeri), waterhemp (common waterhemp, Amaranthus rudis), surinam grass (Brachiaria decumbens), crabgrass, large (large crabgrass, Digitaria sanguinalis), crabgrass, Brazil (Brazilian crabgrass, Digitaria horizontalis), panicum, fall (fall panicum, Panicum dichotomiflorum), foxtail, giant (giant foxtail, Setaria faberii), foxtail, green (green foxtail, Setaria viridis), goosegrass (Eleusine indica), johnsongrass (Sorghum halepense), ragweed (common ragweed, Ambrosia elatior), barnyardgrass (Echinochloa crus-galli), sandbur (southern sandbur, Cenchrus echinatus), arrowleaf […] rhombifolia), ryegrass, Italian (Italian ryegrass, Lolium multiflorum), dayflower, VA (Virginia dayflower, Commelina virginica), field bindweed (Convolvulus arvensis), morningglory (Ipomoea coccinea), nightshade (eastern black nightshade, Solanum ptycanthum), kochia (Kochia scoparia), nutsedge, yellow (yellow nutsedge, Cyperus esculentus), cocklebur (common cocklebur, Xanthium strumarium), smartweed (ladysthumb smartweed, Polygonum Persicaria) and beggarticks (hairy beggarticks, Bidens pilosa), were planted into a silt loam soil and treated preemergence with test chemicals formulated in a non-phytotoxic solvent mixture which included a surfactant. Treated plants and controls were maintained in a greenhouse for 21 days, after which time all species were compared to controls and visually evaluated. Plant response ratings, summarized in Table E, are based on a scale of 0 to 100 where 0 is no effect and 100 is complete control. A dash (-) response means no test result.

wild poinsettia = assay: Test E preemergence herbicide test; format: in vivo, Euphorbia heterophylla; set-up: key: 0 = no effect, 100 = complete control
Source text: as §3

| SMILES | Plant response rating, Sprangletop, Brdd. (sprangletop, Brdd.; 250 g ai/ha) | Plant response rating, Sprangletop, Brdd. (sprangletop, Brdd.; 500 g ai/ha) | Plant response rating, Barnyardgrass (barnyardgrass; 250 g ai/ha) | Plant response rating, Barnyardgrass (barnyardgrass; 500 g ai/ha) | Plant response rating (ryegrass, Italian; 16 g ai/ha) | Plant response rating (ryegrass, Italian; 31 g ai/ha) | Plant response rating (ryegrass, Italian; 62 g ai/ha) | Plant response rating (ryegrass, Italian; 125 g ai/ha) | Plant response rating (ryegrass, Italian; 250 g ai/ha) | Plant response rating, Ryegrass, Italian (ryegrass, Italian; 31 g ai/ha) | Plant response rating, Ryegrass, Italian (ryegrass, Italian; 62 g ai/ha) | Plant response rating, Ryegrass, Italian (ryegrass, Italian; 125 g ai/ha) | Plant response rating, Ryegrass, Italian (ryegrass, Italian; 250 g ai/ha) | Plant response rating (pigweed; 16 g ai/ha) | Plant response rating (pigweed; 31 g ai/ha) | Plant response rating (pigweed; 62 g ai/ha) | Plant response rating (pigweed; 125 g ai/ha) | Plant response rating (pigweed; 250 g ai/ha) | Plant response rating, Pigweed (pigweed; 31 g ai/ha) | Plant response rating, Pigweed (pigweed; 62 g ai/ha) | also measured |
| --- | --- | --- | --- | --- | --- | --- | --- | --- | --- | --- | --- | --- | --- | --- | --- | --- | --- | --- | --- | --- | --- |
| O=C1NCC(c2cccc(C(F)(F)F)c2)C1C(=O)Nc1ccccc1F (racemic) [Compound 3] | 80 | 85 | 90 | 90 |  |  |  |  |  |  |  |  |  |  |  |  |  |  |  |  | Plant response rating, Redstem (redstem; 250 g ai/ha): 0; Plant response rating, Redstem (redstem; 500 g ai/ha): 20; Plant response rating, Flatsedge, Rice (flatsedge, rice; 250 g ai/ha): 0; Plant response rating, Flatsedge, Rice (flatsedge, rice; 500 g ai/ha): 20 |
| O=C1NCC(c2ccc(F)c(F)c2)C1C(=O)Nc1cccc(F)c1 (racemic) [Compound 12] |  |  |  |  | 0 | 0 | 0 | 10 | 15 | 0 | 0 | 0 | 0 | 0 | 10 | 25 | 30 | 50 | 0 | 0 | Plant response rating, Ryegrass, Italian (ryegrass, Italian; 16 g ai/ha): 0; Plant response rating, Pigweed (pigweed; 125 g ai/ha): 0; Plant response rating, Pigweed (pigweed; 250 g ai/ha): 0; Plant response rating, Pigweed (pigweed; 16 g ai/ha): 0 |
| O=C1NCC(c2cccc(Br)c2)C1C(=O)Nc1ccccc1F (stereo not drawn) [Compound 66] |  |  |  |  |  |  |  |  |  |  |  |  |  |  |  |  |  |  |  |  | Plant response rating, Lambsquarters (lambsquarters; 16 g ai/ha): 0; Plant response rating, Lambsquarters (lambsquarters; 31 g ai/ha): 0; Plant response rating, Lambsquarters (lambsquarters; 62 g ai/ha): 0; Plant response rating, Lambsquarters (lambsquarters; 125 g ai/ha): 0; Plant response rating, Lambsquarters (lambsquarters; 250 g ai/ha): 0; Plant response rating, Poinsettia, Wild (wild poinsettia; 16 g ai/ha): 0; Plant response rating, Poinsettia, Wild (wild poinsettia; 31 g ai/ha): 0; Plant response rating, Poinsettia, Wild (wild poinsettia; 62 g ai/ha): 0; Plant response rating, Poinsettia, Wild (wild poinsettia; 125 g ai/ha): 0; Plant response rating, Poinsettia, Wild (wild poinsettia; 250 g ai/ha): 20 |
| O=C1NCC(c2cccc(C(F)(F)F)c2)C1C(=O)Nc1ccc(F)cc1F (racemic) [Compound 207] | 100 | 100 | 100 | 100 |  |  |  |  |  | 0 | 5 | 5 | 15 |  |  |  |  |  | 0 | 0 | Plant response rating, Pigweed (pigweed; 125 g ai/ha): 0; Plant response rating, Pigweed (pigweed; 250 g ai/ha): 5; Plant response rating, Sprangletop, Brdd. (sprangletop, Brdd.; 125 g ai/ha): 100; Plant response rating, Barnyardgrass (barnyardgrass; 125 g ai/ha): 60 |
| O=C1NCC(c2cccc(C(F)(F)F)c2)C1C(=O)Nc1cccc(F)c1F (stereo not drawn) [Compound 241] |  |  |  |  |  |  |  |  |  | 15 | 20 | 20 | 50 |  |  |  |  |  | 15 | 15 | Plant response rating, Pigweed (pigweed; 125 g ai/ha): 85; Plant response rating, Pigweed (pigweed; 250 g ai/ha): 80 |
| O=C1NCC(c2cc(F)c(F)c(F)c2)C1C(=O)Nc1ccccc1C(F)(F)F (racemic) [Compound 33] |  |  |  |  | 0 | 0 | 0 | 0 | 0 |  |  |  |  | 0 | 0 | 0 | 10 | 10 |  |  |  |
| O=C1NCC(c2ccc(F)cc2)C1C(=O)Nc1ccccc1F (racemic) [Compound 16] |  |  |  |  |  |  |  |  |  |  |  |  |  |  |  |  |  |  |  |  | Plant response rating, Lambsquarters (lambsquarters; 16 g ai/ha): 0; Plant response rating, Lambsquarters (lambsquarters; 31 g ai/ha): 0; Plant response rating, Lambsquarters (lambsquarters; 62 g ai/ha): 0; Plant response rating, Lambsquarters (lambsquarters; 250 g ai/ha): 0; Plant response rating, Poinsettia, Wild (wild poinsettia; 16 g ai/ha): 0; Plant response rating, Poinsettia, Wild (wild poinsettia; 31 g ai/ha): 0; Plant response rating, Poinsettia, Wild (wild poinsettia; 62 g ai/ha): 0; Plant response rating, Poinsettia, Wild (wild poinsettia; 125 g ai/ha): 0; Plant response rating, Poinsettia, Wild (wild poinsettia; 250 g ai/ha): 0 |
| O=C1NCC(c2cc(F)c(F)c(F)c2)C1C(=O)Nc1ccccc1F (racemic) [Compound 34] |  |  |  |  | 0 | 0 | 0 | 0 | 0 |  |  |  |  | 0 | 0 | 0 | 0 | 10 |  |  |  |
| O=C1NCC(c2ccc(C(F)(F)F)cc2)C1C(=O)Nc1ccc(F)c(F)c1F (stereo not drawn) [Compound 232] |  |  |  |  |  |  |  |  |  |  |  |  |  |  |  |  |  |  |  |  | Plant response rating, Lambsquarters (lambsquarters; 31 g ai/ha): 95; Plant response rating, Lambsquarters (lambsquarters; 62 g ai/ha): 98; Plant response rating, Lambsquarters (lambsquarters; 125 g ai/ha): 100; Plant response rating, Lambsquarters (lambsquarters; 250 g ai/ha): 98; Plant response rating, Poinsettia, Wild (wild poinsettia; 31 g ai/ha): 0; Plant response rating, Poinsettia, Wild (wild poinsettia; 62 g ai/ha): 0; Plant response rating, Poinsettia, Wild (wild poinsettia; 125 g ai/ha): 35; Plant response rating, Poinsettia, Wild (wild poinsettia; 250 g ai/ha): 40 |
| CN1CC(c2ccc(F)cc2)C(C(=O)Nc2cccc(F)c2F)C1=O (stereo not drawn) [Compound 271] | 80 | 95 | 100 | 100 |  |  |  |  |  |  |  |  |  |  |  |  |  |  |  |  | Plant response rating, Sprangletop, Brdd. (sprangletop, Brdd.; 64 g ai/ha): 20; Plant response rating, Sprangletop, Brdd. (sprangletop, Brdd.; 125 g ai/ha): 30; Plant response rating, Barnyardgrass (barnyardgrass; 64 g ai/ha): 55; Plant response rating, Barnyardgrass (barnyardgrass; 125 g ai/ha): 75 |
